Each compound was assayed against T1, PPARγ (Homo sapiens, UniProt P37231) (assay: Crossover-curve PPAR transactivation test (HeLN cells, luciferase reporter), PPARγ). Settings: HeLN cells stably transfected with Gal-hPPARγ; Schild regression against reference agonist; n.a. means not active; read-out: PPARγ Kd app.
T1 construct: Either way it is a handle, not a second protein
T1 sequence (P37231 238-505 limits assumed): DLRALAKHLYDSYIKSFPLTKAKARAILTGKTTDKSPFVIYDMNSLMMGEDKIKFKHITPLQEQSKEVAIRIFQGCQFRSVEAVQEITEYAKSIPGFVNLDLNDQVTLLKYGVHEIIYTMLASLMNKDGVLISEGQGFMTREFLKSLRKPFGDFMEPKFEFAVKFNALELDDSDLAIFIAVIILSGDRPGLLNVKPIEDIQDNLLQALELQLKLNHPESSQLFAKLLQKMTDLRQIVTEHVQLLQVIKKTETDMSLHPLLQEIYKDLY
Type: cell-based
Experimental: The activation of receptors with an agonist (activator) in HeLN cells leads to the expression of a reporter gene, luciferase, which, in the presence of a substrate, generates light. The modulation of the receptors is measured by quantifying the luminescence produced after incubating the cells in the presence of a reference agonist. The ligands displace the agonist from its site. The measurement of the activity is performed by quantifying the light produced. This measurement makes it possible to determine the modulatory activity of the compounds according to the invention by determining the constant that is the affinity of the molecule for the receptor. Since this value can fluctuate depending on the basal activity and the expression of the receptor, it is referred to as Kd apparent (KdApp in nM).
To determine this constant, “crossover curves” of the test product against a reference agonist are performed in a 96-well plate: 10 concentrations of the test product plus a concentration 0 are arranged in a line, and 7 concentrations of the agonist plus a concentration 0 are arranged in a column. This is 88 measurement points for 1 product and 1 receptor. The remaining 8 wells are used for repeatability controls.
Measurements are also taken for total agonist controls with the same products.
The HeLN cell lines used are stable transfectants containing the plasmids ERE-βGlob-Luc-SV-Neo (reporter gene) and PPAR (α, δ, γ) Gal-hPPAR. These cells are inoculated into 96-well plates at a rate of 10 000 cells per well in 100 μl of DMEM medium without phenol red and supplemented with 10% of defatted calf serum. The plates are then incubated at 37° C. and 7% CO2 for 16 hours.
The various dilutions of the test products and of the reference ligand are added at a rate of 5 μl per well. The plates are then incubated for 18 hours at 37° C. and 7% CO2. The culture medium is removed by turning over and 100 μl of a 1:1 PBS/luciferine mixture are added to each well. After 5 minutes, the plates are read by the luminescence detector.

Kd [nM]	Structure (SMILES)
500	COCCOCOc1ccc2cc(C(=O)N(C)Cc3cccc(-c4ccc(Nc5cccc(C(=O)N6CCOCC6)c5)cc4)c3)ccc2c1 [Example 17]
120	COCCOCOc1ccc2cc(C(=O)N(C)Cc3cccc(-c4ccc(Nc5cccc(C(=O)N6CCC(C)CC6)c5)cc4)c3)ccc2c1 [Example 16, N-methyl-N-{4′-[3-(4-methylpiperidine-1-carbonyl)phenylamino]biphenyl-3-ylmethyl}-6-(2-methoxyethoxymethoxy)naphthalene-2-carboxylamide]
250	CCCCCCCC(=O)N(C)Cc1cccc(-c2ccc(N(C)c3ccccc3C(=O)O)cc2)c1 [Example 8, 2-(methyl-{3′-[(methyloctanoylamino)methyl]biphenyl-4-yl}amino)benzoic acid]

From patent US7125869B2, “Polycyclic compounds which modulate PPARγ type receptors and cosmetic/pharmaceutical compositions comprised thereof” (Galderma Research & Development, priority 2002, dated 2006)
